Data as given in patent US6969697B2, “Substituted benzoylcyclohexenones” (Bayer Aktiengesellschaft, priority 2000, dated 2005).

Tests used:
[1] = logP by reversed-phase HPLC (EEC Directive 79/831 Annex V.A8), acidic range; format: physicochemical; conditions: reversed-phase column (C 18), 43° C.; a) acidic range: 0.1% aqueous phosphoric acid, acetonitrile, linear gradient 10% to 90%
Protocol: The logP values given in Table 1 were determined in accordance with EEC Directive 79/831 Annex V.A8 by HPLC (High Performance Liquid Chromatography) using a reversed-phase column (C 18). Temperature: 43° C. • (a) Mobile phases for the determination in the acidic range: 0.1% aqueous phosphoric acid, acetonitrile; linear gradient from 10% acetonitrile to 90% acetonitrile—the corresponding data are labelled ^a) in Table 1. • (b) Mobile phases for the determination in the neutral range: 0.01 molar aqueous phosphate buffer solution, acetonitrile; linear gradient from 10% acetonitrile to 90% acetonitrile—corresponding data are labelled ^b) in Table 1.
Calibration was carried out using unbranched alkan-2-ones (having 3 to 16 carbon atoms), with known logP values (determination of the logP values by the retention times using linear interpolation between two successive alkanones).

weeds [2] = assay: Post-emergence test (Example B), herbicidal activity; format: in vivo; conditions: test plants 5-15 cm sprayed, rated after three weeks
Protocol: (§1) • Solvent: 5 parts by weight of acetone • Emulsifier: 1 part by weight of alkilaryl polyglycol ether
(§2) To produce a suitable preparation of active compound, 1 part by weight of active compound is mixed with the stated amount of solvent, the stated amount of emulsifier is added and the concentrate is diluted with water to the desired concentration.
(§3) Test plants of a height of 5-15 cm are sprayed with the preparation of active compound such that the particular amounts of active compound desired are applied per unit area. The concentration of the spray liquor is chosen such that the particular amounts of active compound desired are applied in 1000 l of water/ha.
(§4) After three weeks, the degree of damage to the plants is rated in % damage in comparison to the development of the untreated control.
(§5) The figures denote: • 0%=no effect (like untreated control) • 100%=total destruction

maize [3] = assay: Post-emergence test (Example B), crop plant tolerance, maize; format: in vivo; conditions: rated after three weeks
Protocol: as §1, §2, §3, §4, §5

wheat = assay: Post-emergence test (Example B), crop plant tolerance, wheat; format: in vivo; conditions: rated after three weeks
Protocol: as §1, §2, §3, §4, §5

weeds [4] = assay: Pre-emergence test (Example A), herbicidal activity; format: in vivo; conditions: soil sprayed 24 hours after sowing, rated after three weeks
Protocol: as §1, §2
(§6) Seeds of the test plants are sown in normal soil. After 24 hours, the soil is sprayed with the preparation of active compound such that the particular amount of active compound desired is applied per unit area. The concentration of active compound in the spray liquor is chosen such that the particular amount of active compound desired is applied in 1000 litres of water per hectare.
(§7) After three weeks, the degree of damage to the plants is rated in % damage in comparison to the development of the untreated control. The figures denote: • 0%=no effect (like untreated control) • 100%=total destruction

maize [5] = assay: Pre-emergence test (Example A), crop plant tolerance; format: in vivo; conditions: rated after three weeks
Protocol: as §1, §2, §6, §7

Compound: CCOn1c(CC)nn(Cc2c(S(C)(=O)=O)ccc(C(=O)C3=C(Sc4ccccc4)CCCC3=O)c2Cl)c1=O [Example 10]
- logP [1]: logP = 3.13^a)

Compound: COc1nn(Cc2c(Cl)ccc(C(=O)C3=C(Sc4ccccc4)CCCC3=O)c2Cl)c(=O)n1C [Example 11]
- logP [1]: logP = 3.06^a)

Compound: COc1nn(Cc2cc(C(F)(F)F)ccc2C(=O)C2=C(SC)CCCC2=O)c(=O)n1C [Example 19]
- logP [1]: logP = 2.41^a)
- activity against weeds (degree of damage) (weeds [2]): strong activity against weeds
- tolerance by crop plants (maize [3]): tolerated well
- tolerance by crop plants (wheat): tolerated well

Compound: COc1nn(Cc2c(Cl)ccc(C(=O)C3=C(S(=O)(=O)c4ccccc4)CCCC3=O)c2Cl)c(=O)n1C [Example 14]
- logP [1]: logP = 2.62^a)

Compound: COc1nn(Cc2c(S(C)(=O)=O)ccc(C(=O)C3=C(Sc4ccccc4)CCCC3=O)c2Cl)c(=O)n1C [Example 7]
- logP [1]: logP = 2.67^a)

Compound: CCCCN1CCN(Cc2c(Cl)ccc(C(=O)C3=C(Sc4ccccc4)CCCC3=O)c2Cl)C1=O [Example 120]
- logP [1]: logP = 4.02^a)

Compound: COc1nn(Cc2cc(C(F)(F)F)ccc2C(=O)C2=C(Sc3ccccc3)CCCC2=O)c(=O)n1C [Example 18]
- logP [1]: logP = 3.30^a)
- activity against weeds (degree of damage) (weeds [2]): strong activity against weeds
- tolerance by crop plants (maize [3]): tolerated well
- tolerance by crop plants (wheat): tolerated well

Compound: CN1CCN(Cc2c(Cl)ccc(C(=O)C3=C(Sc4ccccc4)CCCC3=O)c2Cl)C1=O [Example 2]
- logP [1]: logP = 3.02^a)
- activity against weeds (degree of damage) (weeds [2]): strong activity against weeds
- tolerance by crop plants (maize [3]): tolerated well
- tolerance by crop plants (wheat): tolerated well

Compound: CCN1CCN(Cc2c(Cl)ccc(C(=O)C3=C(Sc4ccccc4)CCCC3=O)c2Cl)C1=O [Example 3]
- logP [1]: logP = 3.30^a)

Compound: CCN1CCN(Cc2c(S(C)(=O)=O)ccc(C(=O)C3=C(Sc4ccccc4)CCCC3=O)c2Cl)C1=O [Example 9]
- logP [1]: logP = 2.79^a)

Compound: O=C1CCCC(Sc2ccccc2)=C1C(=O)c1ccc(Cl)c(Cn2nc(C3CC3)n(C3CC3)c2=O)c1Cl [Example 5]
- logP [1]: logP = 3.50^a)
- activity against weeds (degree of damage) (weeds [2]): strong activity against weeds
- tolerance by crop plants (maize [3]): tolerated well
- tolerance by crop plants (wheat): tolerated well

Compound: CC(C)CN1CCN(Cc2c(Cl)ccc(C(=O)C3=C(Sc4ccccc4)CCCC3=O)c2Cl)C1=O [Example 121]
- logP [1]: logP = 3.98^a)

Compound: CSC1=C(C(=O)c2ccc(C(F)(F)F)cc2Cn2nc(SC)n(C)c2=O)C(=O)CCC1 [Example 17]
- logP [1]: logP = 2.63^a)
- activity against weeds (degree of damage) (weeds [2]): strong activity against weeds
- tolerance by crop plants (maize [3]): tolerated well
- tolerance by crop plants (wheat): tolerated well

Compound: CC(C)Oc1nn(Cc2c(Cl)ccc(C(=O)C3=C(Sc4ccccc4)CCCC3=O)c2Cl)c(=O)n1C [Example 12]
- logP [1]: logP = 3.69^a)

Compound: CN1CCN(Cc2c(S(C)(=O)=O)ccc(C(=O)C3=C(Sc4ccccc4)CCCC3=O)c2Cl)C1=O [Example 8]
- logP [1]: logP = 2.56^a)

Compound: CSc1nn(Cc2c(S(C)(=O)=O)ccc(C(=O)C3=C(Sc4ccccc4)CCCC3=O)c2Cl)c(=O)n1C [Example 6]
- logP [1]: logP = 2.84^a)

Compound: CSc1nn(Cc2cc(C(F)(F)F)ccc2C(=O)C2=C(Sc3ccccc3)CCCC2=O)c(=O)n1C [Example 16]
- logP [1]: logP = 3.58^a)
- activity against weeds (degree of damage) (weeds [4]): strong activity against weeds
- tolerance by crop plants (maize [5]): tolerated well
- activity against weeds (degree of damage) (weeds [2]): strong activity against weeds
- tolerance by crop plants (maize [3]): tolerated well
- tolerance by crop plants (wheat): tolerated well

Compound: CSc1nn(Cc2c(Cl)ccc(C(=O)C3=C(Sc4ccccc4)CCCC3=O)c2Cl)c(=O)n1C [Example 4]
- logP [1]: logP = 3.29^a)

Compound: CN1CCCN(Cc2c(Cl)ccc(C(=O)C3=C(Sc4ccccc4)CCCC3=O)c2Cl)C1=O [Example 1, 1-[2,6-dichloro-3-[(6-oxo-2-phenylthio-1-cyclohexen-1-yl)-carbonyl]-benzyl]-3-methyl-tetrahydro-2(1H)-pyrimidinone]
- activity against weeds (degree of damage) (weeds [2]): strong activity against weeds
- tolerance by crop plants (maize [3]): tolerated well
- tolerance by crop plants (wheat): tolerated well
- melting point: 140 °C

Compound: CN(C)c1nn(Cc2c(Cl)ccc(C(=O)C3=C(Sc4ccccc4)CCCC3=O)c2Cl)c(=O)n1C [Example 13]
- logP [1]: logP = 3.10^a)
